Measurements from patent US20250340590A1, “PEPTIDE HAVING ANTI-INFLAMMATORY ACTIVITY AND USE THEREOF” (CAREGEN CO., LTD., priority 2021, published 2025).

Key:
Type in all cases: cell-based
IFNγ [1] = test: IFNγ secretion by ELISA in LPS-induced mouse splenocytes; conditions: LPS 2 μg/mL, peptide at 5 μM and 50 μM, 24 hours
Protocol: (§1) Inflammation was induced in mouse splenocytes, and the secretion amounts of inflammatory cytokines TNFα, IL-1β, and IFNγ were confirmed. In order to induce inflammation, the cells were treated with an inflammation-inducing antigen, LPS, and since TNFα corresponds to a signaling protein associated with inflammation, IL-1β corresponds to a cytokine that promotes inflammation, and IFNγ also corresponds to a cytokine that promotes inflammation, the degree of inflammation can be confirmed by measuring the secretion amounts of TNFα, IL-1B, and IFNγ.
(§2) Mouse splenocytes were dispensed into a 24-well plate at a concentration of 1×10^7 cells/well and cultured until the next day. The medium was replaced with serum-free medium, and after 4 hours, the cells were treated with LPS and the peptide of the present invention and then cultured again for another 24 hours. In order to induce inflammation, the cells were treated with LPS at 2 μg/mL, and the peptide at 5 μM and 50 μM, respectively. […]

IL-1β = IL-1β secretion by ELISA in LPS-induced mouse splenocytes; conditions: LPS 2 μg/mL, peptide at 5 μM and 50 μM, 24 hours
Protocol: as §1, §2

IFNγ [2] = test: IFNγ secretion by ELISA in TNFα-induced mouse splenocytes; conditions: TNFα 20 nM, 24 hours
Protocol: Inflammation was induced by treating mouse splenocytes with the inflammatory cytokine TNFα, and the secretion amounts of the inflammatory cytokines IL-17, IL-1B, and IFNγ were confirmed. IL-17 corresponds to a pro-inflammatory cytokine, and the descriptions of IL-1β and IFNγ are the same as above.
Mouse splenocytes were dispensed into a 24-well plate at a concentration of 1×10^7 cells/well and cultured until the next day. The medium was replaced with serum-free medium, and after 4 hours, the cells were treated with TNFα and the peptide of the present invention and then cultured again for another 24 hours. In order to induce inflammation, the cells were treated with TNFα at 20 nM, and the peptide at 5 μM and 50 μM, respectively. The mouse splenocytes in the group in which inflammation was not induced due to untreatment with TNFα (NON); the negative control group in which the cells were treated with TNFα but not treated with the peptide (NC); and the group in which the cells were treated with TNFα along with the peptide of the present invention at the same concentration as above, respectively, were reacted as described above and the cell cultures were recovered. […]

TNFα = TNFα mRNA level by RT-PCR in TNFα-induced mouse splenocytes; conditions: TNFα 20 nM, peptide at 5 μM and 50 μM, 3 hours, compared to group not treated with the peptide
Protocol: In order to further confirm the anti-inflammatory effect of the peptide treatment of the present invention in addition to the results of Experimental Example <3-1>, inflammation was induced by treating mouse splenocytes with TNFα, and the expression levels of inflammatory cytokines TNFα and IL-1β, and Cox2, which is an inflammation-inducing marker, genes were confirmed. In order to induce inflammation, the cells were treated with cytokine TNFα, and since TNFα corresponds to a signaling protein associated with inflammation, IL-1β corresponds to a cytokine that promotes inflammation, and Cox2 is a protein associated with inflammation, the degree of inflammation can be confirmed by measuring the expression levels of TNFα, Cox2, and IL-1β genes.
Mouse splenocytes were dispensed into a 24-well plate at a concentration of 1× 10^7 cells/well and cultured until the next day. The medium was replaced with serum-free medium, and after 3 hours, the cells were treated with TNFα and the peptide of the present invention and then cultured for another 3 hours. In order to induce inflammation, the cells were treated with TNFα at 20 nM, and the peptide at 5 μM and 50 μM, respectively. […] After quantifying the amount of isolated RNA, cDNA was synthesized using a cDNA synthesis kit (Intron, Korea), PCR was performed using a PCR premix (Intron, Korea) and primers for TNFα, Cox2, and IL-1B. […]

TWNS [peptide of the present invention]
decreased: secretion amount of IFNγ (IFNγ [1]) | secretion amount of IL-1β (IL-1β) | secretion amount of IFNγ (IFNγ [2]; peptide at 5 μM) | secretion amount of IFNγ (IFNγ [2]; peptide at 50 μM) | mRNA expression level of TNFα (TNFα)
